This is an account of results in PMC10215199 (Antioxidants, 2023).

Counter-ions that a name gives are not always drawn. Some results are limits rather than exact numbers.

One experiment addresses T1, recombinant human MAO-A (Homo sapiens, UniProt P21397).
T1 sequence (P21397 1-527): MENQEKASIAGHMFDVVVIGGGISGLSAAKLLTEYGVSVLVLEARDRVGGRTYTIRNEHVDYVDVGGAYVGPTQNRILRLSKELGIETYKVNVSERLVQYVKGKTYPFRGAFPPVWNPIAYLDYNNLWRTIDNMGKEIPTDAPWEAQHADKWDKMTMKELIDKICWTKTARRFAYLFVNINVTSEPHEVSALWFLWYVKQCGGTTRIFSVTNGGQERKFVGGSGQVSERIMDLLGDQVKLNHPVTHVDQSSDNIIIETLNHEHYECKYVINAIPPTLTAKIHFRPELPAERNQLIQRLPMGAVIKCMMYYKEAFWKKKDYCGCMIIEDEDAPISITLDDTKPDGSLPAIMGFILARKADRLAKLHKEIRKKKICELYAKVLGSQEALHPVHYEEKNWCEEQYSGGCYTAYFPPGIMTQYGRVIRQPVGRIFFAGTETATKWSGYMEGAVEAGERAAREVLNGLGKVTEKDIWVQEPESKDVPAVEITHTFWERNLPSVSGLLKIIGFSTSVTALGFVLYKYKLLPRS
Kind of experiment: Monoamine oxidase-A inhibition assay (Amplex red fluorescence). The format is biochemical. To be noted: ±sem; for inhibition at 1 µM: single dose concentration of 1 µM, NI = no measured inhibition, read-out: % Inhibition MAO-A; for inhibition at 100 µM: read-out: MAO-A % Inhibition; for IC50: read-out: MAO-A IC50. The procedure: Two isoforms of MAOs, namely MAO-A and MAO-B, are expressed in CNS, showing different substrate specificity. Consequently, different pharmacological effects can be elicited depending on the inhibited MAO isoform. Therefore, the prepared O^6-aminoalkyl-hispidol analogs were evaluated against both recombinant human MAO-A and MAO-B isoforms following the well-established spectrophotometric method.
2. Biological evaluations
2.1. In vitro assay of human monoamine oxidases inhibition
The MAO activity was quantified by measuring fluorescence intensity evoked by Amplex red reaction in which Amplex red reacts with hydrogen peroxide from the MAO reaction to produce highly fluorescent resorufin. The test compound in DMSO (final concentration: 1 nM – 10 μM or 10 nM – 100 μM ) and hMAO enzyme (Sigma Aldrich, St. Louis, MO, USA) in 50 mM sodium phosphate buffer (pH 7.4, final protein amount: ~1.25 μg of MAO-A/well and 2.5 μg of MAO-B/well) were loaded on 96-well black plate and incubated for 15 min at 37 °C. Then working solution of 200 μM Amplex Red (Cayman, Ann Arbor, MI, USA), 1 U/mL horseradish peroxidase (Sigma-Aldrich) and 1 mM substrate (p-tyramine for MAO-A, benzylamine for MAO-B, Sigma-Aldrich) in 50 mM sodium phosphate buffer (pH 7.4) was added and incubated for 20 min at 37 °C in the dark. The fluorescence was measured using a microplate reader (SpectraMax®i3, Molecular Device, San Jose, CA, USA) with an excitation at 545 nm and an emission at 590 nm. […]
of compounds were determined as the mean ± S.E.M. in triplicate from the dose-response inhibition curves using SigmaPlot® 13.0.

In another experiment the target is T2, recombinant human MAO-B (Homo sapiens, UniProt P27338).
T2 construct: purchased Sigma Aldrich
T2 sequence (P27338 1-520): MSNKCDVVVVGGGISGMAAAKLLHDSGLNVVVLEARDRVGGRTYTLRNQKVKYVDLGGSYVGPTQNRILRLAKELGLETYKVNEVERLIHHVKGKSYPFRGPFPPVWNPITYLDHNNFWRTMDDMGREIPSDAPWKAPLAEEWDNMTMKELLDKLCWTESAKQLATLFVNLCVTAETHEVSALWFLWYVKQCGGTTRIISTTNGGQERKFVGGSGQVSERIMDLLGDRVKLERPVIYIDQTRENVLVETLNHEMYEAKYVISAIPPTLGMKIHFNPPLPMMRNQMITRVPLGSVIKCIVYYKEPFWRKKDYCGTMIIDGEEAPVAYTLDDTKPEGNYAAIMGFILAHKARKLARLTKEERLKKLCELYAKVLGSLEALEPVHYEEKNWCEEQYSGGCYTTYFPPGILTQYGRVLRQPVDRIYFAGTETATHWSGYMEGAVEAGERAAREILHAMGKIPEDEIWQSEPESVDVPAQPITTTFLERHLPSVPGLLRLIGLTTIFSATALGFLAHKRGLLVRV
Kind of experiment: biochemical. To be noted: ±sem; for inhibition at 10 µM: single dose concentration of 10 µM; for IC50: five doses.

Setting [1] is: single dose concentration of 100 µM.

One may read the inhibition as the change of the read-out against control, counted positive when it falls. On to `CCN(CC)CCOc1ccc2c(c1)O/C(=C\c1cccc(OC)c1)C2=O` [Compound 3ad], for which the inhibition at 1 µM on recombinant human MAO-A is under 0%. In addition, the inhibition at 10 µM at recombinant human MAO-B was found to be 46.09 ± 0.11%.

With `COc1ccc(/C=C2\Oc3cc(OCCCCCN4CCCCC4)ccc3C2=O)cc1OC` [Compound 3as, (Z)-2-(3,4-Dimethoxybenzylidene)-6-(5-(piperidin-1-yl)pentoxy)benzofuran-3(2H)-one hydrochloride], at recombinant human MAO-A, the inhibition at 1 µM is under 0%. Also, at recombinant human MAO-B, the inhibition at 10 µM was 4.76 ± 1.91%.

For the compound `COc1cccc(/C=C2\Oc3cc(OCCN4CCCC4)ccc3C2=O)c1OC` [Compound 3av], the inhibition at 1 µM at recombinant human MAO-A worked out at 12.6 ± 0.32%. The inhibition at 10 µM on recombinant human MAO-B amounted to 2.61 ± 1.78%.

As to `COc1ccc(/C=C2\Oc3cc(OCCN4CCCCC4)ccc3C2=O)cc1` [Compound 3am], on recombinant human MAO-A, the inhibition at 1 µM was found to be 0.92 ± 0.83%. For the same compound, the inhibition at 10 µM on recombinant human MAO-B is 20.6 ± 0.79%.

For `COc1ccc(/C=C2\Oc3cc(OCCN4CCCC4)ccc3C2=O)cc1OC` [Compound 3an], the inhibition at 1 µM on recombinant human MAO-A is under 0%. Also, the inhibition at 10 µM at recombinant human MAO-B amounted to 48.1 ± 1.46%.

On to `COc1cccc(/C=C2\Oc3cc(OCCCN4CCCC4)ccc3C2=O)c1` [Compound 3ag], for which the inhibition at 1 µM at recombinant human MAO-A turned out to be 12.2 ± 1.05%. Moreover, the inhibition at 10 µM at recombinant human MAO-B is 16.99 ± 0.11%.

Take `COc1ccc(/C=C2\Oc3cc(OCCN4CCCC4)ccc3C2=O)c(OC)c1` [Compound 3aw]: the inhibition at 1 µM on recombinant human MAO-A was 12.7 ± 0.54%. Besides, the inhibition at 10 µM at recombinant human MAO-B was determined as 41.6 ± 1.03%.

A word on the IC50: it is the concentration that inhibits the measured activity by half. Consider `COc1ccc(OC)c(/C=C2\Oc3cc(OCCN4CCCC4)ccc3C2=O)c1` [Compound 3ax], for which, at recombinant human MAO-A, the inhibition at 1 µM was under 0% and the IC50 was over 100 µM. For the same compound, at recombinant human MAO-A (setting [1]), the inhibition at 100 µM was about 28%. Further, on recombinant human MAO-B, the inhibition at 10 µM came out at 65.05 ± 0.43% and the IC50 worked out at 3.16 ± 0.036 µM.

As for `COc1cccc(/C=C2\Oc3cc(OCCN4CCOCC4)ccc3C2=O)c1` [Compound 3ai], on recombinant human MAO-A, the inhibition at 1 µM is 4.1 ± 0.48%. For the same compound, the inhibition at 10 µM at recombinant human MAO-B amounted to 27.9 ± 0.37%.

`COc1ccc(/C=C2\Oc3cc(OCCCCN4CCCCC4)ccc3C2=O)cc1OC` [Compound 3ar]: the inhibition at 1 µM on recombinant human MAO-A was under 0%. Also, the inhibition at 10 µM at recombinant human MAO-B was found to be 3.89 ± 1.63%.

Regarding `COc1ccc(OC)c(/C=C2\Oc3cc(OCCCN4CCCC4)ccc3C2=O)c1` [Compound 3ba], at recombinant human MAO-A, the inhibition at 1 µM was under 0%. Also, the inhibition at 10 µM on recombinant human MAO-B amounted to 20.3 ± 0.49%.

With `COc1cccc(/C=C2\Oc3cc(OCCN4CCCC4)ccc3C2=O)c1` [Compound 3af], the inhibition at 1 µM on recombinant human MAO-A is under 0%. The inhibition at 10 µM on recombinant human MAO-B was determined as 39.1 ± 0.96%.

With `CCN(CC)CCCOc1ccc2c(c1)O/C(=C\c1cccc(OC)c1)C2=O` [Compound 3ae], on recombinant human MAO-A, the inhibition at 1 µM is under 0%. The inhibition at 10 µM at recombinant human MAO-B came to 18.8 ± 0.45%.

In the case of `COc1ccc(/C=C2\Oc3cc(OCCCN4CCCC4)ccc3C2=O)cc1OC` [Compound 3ao], the inhibition at 1 µM at recombinant human MAO-A was under 0%. Moreover, the inhibition at 10 µM at recombinant human MAO-B came to 39.2 ± 0.58%.

On to `COc1ccc(/C=C2\Oc3cc(OCCCN4CCCCC4)ccc3C2=O)cc1OC` [Compound 3aq], for which the inhibition at 1 µM on recombinant human MAO-A was under 0%. Further, on recombinant human MAO-B, the inhibition at 10 µM came out at 4.51 ± 1.3%.

Take `COc1cccc(/C=C2\Oc3cc(OCCCN4CCCCC4)ccc3C2=O)c1` [Compound 3ah]: on recombinant human MAO-A, the inhibition at 1 µM was under 0%. The inhibition at 10 µM on recombinant human MAO-B came to 18.1 ± 1.83%.

`COc1cc(/C=C2\Oc3cc(OCCN4CCCCC4)ccc3C2=O)cc(OC)c1OC` [Compound 3bd]: the inhibition at 1 µM at recombinant human MAO-A is under 0%. In addition, on recombinant human MAO-B, the inhibition at 10 µM amounted to 27.9 ± 0.36%.

As for `COc1ccccc1/C=C1\Oc2cc(OCCN3CCCC3)ccc2C1=O` [Compound 3ab], at recombinant human MAO-A, the inhibition at 1 µM was under 0%. Further, the inhibition at 10 µM at recombinant human MAO-B came out at 43 ± 0.55%.

As for `COc1ccccc1/C=C1\Oc2cc(OCCCN3CCCC3)ccc2C1=O` [Compound 3ac], the inhibition at 1 µM at recombinant human MAO-A amounted to 1.31 ± 0.82%. The inhibition at 10 µM at recombinant human MAO-B turned out to be 32.27 ± 0.23%.

For `COc1ccc(/C=C2\Oc3cc(OCCN4CCCCC4)ccc3C2=O)cc1OC` [Compound 3ap], at recombinant human MAO-A, the inhibition at 1 µM is under 0% and the IC50 is over 100 µM. Besides, the “MAO-A % Inhibition” value on recombinant human MAO-A (single dose concentration of 100 µM, 100 µM) stood at 22.52 ± 0.04%. The inhibition at 100 µM at recombinant human MAO-A (setting [1]) is about 23%. On recombinant human MAO-B, the inhibition at 10 µM was 50.81 ± 0.44% and the IC50 is 10.18 ± 0.099 µM.

With `COc1cc(/C=C2\Oc3cc(OCCN4CCCC4)ccc3C2=O)cc(OC)c1` [Compound 3at], at recombinant human MAO-A, the inhibition at 1 µM was under 0%. The inhibition at 10 µM at recombinant human MAO-B was determined as 36.8 ± 0.44%.

Turning to `COc1ccc(/C=C2\Oc3cc(OCCCN4CCCC4)ccc3C2=O)c(OC)c1` [Compound 3az], the inhibition at 1 µM at recombinant human MAO-A is under 0%. Also, the inhibition at 10 µM at recombinant human MAO-B amounted to 35.87 ± 0.17%.

`COc1ccc(/C=C2\Oc3cc(OCCCN4CCCC4)ccc3C2=O)cc1` [Compound 3ak]: the inhibition at 1 µM at recombinant human MAO-A came to 9.83 ± 0.64%. The inhibition at 10 µM on recombinant human MAO-B came to 45.64 ± 0.08%.

Take `COc1cc(/C=C2\Oc3cc(OCCCN4CCCC4)ccc3C2=O)cc(OC)c1` [Compound 3au]: the inhibition at 1 µM on recombinant human MAO-A was under 0%. For the same compound, the inhibition at 10 µM at recombinant human MAO-B was found to be 21.2 ± 0.3%.

`COc1ccc(/C=C2\Oc3cc(OCCN4CCCC4)ccc3C2=O)c(OC)c1OC` [Compound 3bb]: the inhibition at 1 µM at recombinant human MAO-A is under 0%. For the same compound, the inhibition at 10 µM at recombinant human MAO-B was found to be 23.9 ± 0.81%.

With `COc1ccc(/C=C2\Oc3cc(OCCN4CCCC4)ccc3C2=O)cc1` [Compound 3aj], the inhibition at 1 µM at recombinant human MAO-A is 3.26 ± 0.75%. Also, the inhibition at 10 µM at recombinant human MAO-B was 39.26 ± 0.03%.

On to `COc1cccc(/C=C2\Oc3cc(OCCCN4CCCC4)ccc3C2=O)c1OC` [Compound 3ay], for which the inhibition at 1 µM on recombinant human MAO-A was under 0%. Further, the inhibition at 10 µM at recombinant human MAO-B turned out to be 4.37 ± 0.9%.
